According to ChEMBL document CHEMBL3286303, “Synthesis and in vitro antiproliferative evaluation of novel N-alkylated 6-isobutyl- and propyl pyrimidine derivatives” (Bioorg Med Chem Lett, 2014):

Assays:
K562 [1] = assay: Cell cycle arrest in human K562 cells as assessed as accumulation at S phase at 1 uM after 24 hrs by propidium iodide staining-based flow cytometric analysis relative to control; assay type: functional
K562 [2] = assay: Cell cycle arrest in human K562 cells as assessed as accumulation at sub-G1 phase at 0.1 uM after 48 hrs by propidium iodide staining-based flow cytometric analysis relative to control; assay type: functional
K562 [3] = assay: Cell cycle arrest in human K562 cells as assessed as accumulation at G1 phase at 0.1 uM after 48 hrs by propidium iodide staining-based flow cytometric analysis relative to control; assay type: functional
K562 [4] = assay: Cell cycle arrest in human K562 cells as assessed as accumulation at G1 phase at 1 uM after 48 hrs by propidium iodide staining-based flow cytometric analysis relative to control; assay type: functional
K562 [5] = assay: Cell cycle arrest in human K562 cells as assessed as accumulation at S phase at 1 uM after 48 hrs by propidium iodide staining-based flow cytometric analysis relative to control; assay type: functional
K562 [6] = assay: Cell cycle arrest in human K562 cells as assessed as accumulation at G2/M phase at 1 uM after 48 hrs by propidium iodide staining-based flow cytometric analysis relative to control; assay type: functional
K562 [7] = assay: Cell cycle arrest in human K562 cells as assessed as accumulation at sub-G1 phase at 0.5 uM after 24 hrs by propidium iodide staining-based flow cytometric analysis relative to control; assay type: functional
K562 [8] = assay: Cell cycle arrest in human K562 cells as assessed as accumulation at G1 phase at 0.5 uM after 24 hrs by propidium iodide staining-based flow cytometric analysis relative to control; assay type: functional
K562 [9] = assay: Cell cycle arrest in human K562 cells as assessed as accumulation at sub-G1 phase at 0.5 uM after 48 hrs by propidium iodide staining-based flow cytometric analysis relative to control; assay type: functional
K562 [10] = assay: Cell cycle arrest in human K562 cells as assessed as accumulation at G1 phase at 0.5 uM after 48 hrs by propidium iodide staining-based flow cytometric analysis relative to control; assay type: functional
K562 [11] = assay: Cell cycle arrest in human K562 cells as assessed as accumulation at S phase at 0.5 uM after 48 hrs by propidium iodide staining-based flow cytometric analysis relative to control; assay type: functional
K562 [12] = assay: Cell cycle arrest in human K562 cells as assessed as accumulation at G2/M phase at 0.5 uM after 48 hrs by propidium iodide staining-based flow cytometric analysis relative to control; assay type: functional
MCF7 [13] = assay: Antiproliferative activity against human MCF7 cells after 72 hrs by MTT assay; assay type: functional, cell-based
[14] = (§1) Antiproliferative activity against human MIAPaCa2 cells after 72 hrs by MTT assay; assay type: functional, cell-based; details: MIA PaCa-2, 72 h
MIA PaCa-2 = assay: as §1; assay type: functional, cell-based
K562 [15] = assay: Antiproliferative activity against apoptosis-resistant, Philadelphia chromosome-positive human K562 cells after 72 hrs by PrestoBlue colorimetric assay; assay type: functional, cell-based; details: K562, 72 h
BJ = assay: Antiproliferative activity against human BJ cells after 72 hrs by PrestoBlue colorimetric assay; assay type: cell-based
SW-620 [16] = assay: Cell cycle arrest in human SW620 cells as assessed as accumulation at sub-G1 phase at 0.1 uM after 24 hrs by propidium iodide staining-based flow cytometric analysis relative to control; assay type: functional
SW-620 [17] = assay: Cell cycle arrest in human SW620 cells as assessed as accumulation at G1 phase at 0.1 uM after 24 hrs by propidium iodide staining-based flow cytometric analysis relative to control; assay type: functional
SW-620 [18] = assay: Cell cycle arrest in human SW620 cells as assessed as accumulation at G2/M phase at 0.1 uM after 24 hrs by propidium iodide staining-based flow cytometric analysis relative to control; assay type: functional
SW-620 [19] = assay: Cell cycle arrest in human SW620 cells as assessed as accumulation at sub-G1 phase at 1 uM after 24 hrs by propidium iodide staining-based flow cytometric analysis relative to control; assay type: functional
SW-620 [20] = assay: Cell cycle arrest in human SW620 cells as assessed as accumulation at G1 phase at 1 uM after 24 hrs by propidium iodide staining-based flow cytometric analysis relative to control; assay type: functional
SW-620 [21] = assay: Cell cycle arrest in human SW620 cells as assessed as accumulation at S phase at 1 uM after 24 hrs by propidium iodide staining-based flow cytometric analysis relative to control; assay type: functional
SW-620 [22] = assay: Cell cycle arrest in human SW620 cells as assessed as accumulation at G2/M phase at 1 uM after 24 hrs by propidium iodide staining-based flow cytometric analysis relative to control; assay type: functional
SW-620 [23] = assay: Cell cycle arrest in human SW620 cells as assessed as accumulation at G1 phase at 1 uM after 48 hrs by propidium iodide staining-based flow cytometric analysis relative to control; assay type: functional
SW-620 [24] = assay: Cell cycle arrest in human SW620 cells as assessed as accumulation at G2/M phase at 1 uM after 48 hrs by propidium iodide staining-based flow cytometric analysis relative to control; assay type: functional
WI-38 [25] = assay: Cell cycle arrest in human WI38 cells as assessed as accumulation at G1 phase at 0.1 uM after 24 hrs by propidium iodide staining-based flow cytometric analysis relative to control; details: wi-38, 24 h
WI-38 [26] = assay: Cell cycle arrest in human WI38 cells as assessed as accumulation at S phase at 0.1 uM after 24 hrs by propidium iodide staining-based flow cytometric analysis relative to control; details: wi-38, 24 h
WI-38 [27] = assay: Cell cycle arrest in human WI38 cells as assessed as accumulation at G1 phase at 1 uM after 24 hrs by propidium iodide staining-based flow cytometric analysis relative to control; details: wi-38, 24 h
WI-38 [28] = assay: Cell cycle arrest in human WI38 cells as assessed as accumulation at S phase at 1 uM after 24 hrs by propidium iodide staining-based flow cytometric analysis relative to control; details: wi-38, 24 h
WI-38 [29] = assay: Cell cycle arrest in human WI38 cells as assessed as accumulation at G2/M phase at 1 uM after 24 hrs by propidium iodide staining-based flow cytometric analysis relative to control; details: wi-38, 24 h
WI-38 [30] = assay: Cell cycle arrest in human WI38 cells as assessed as accumulation at G1 phase at 1 uM after 48 hrs by propidium iodide staining-based flow cytometric analysis relative to control; details: wi-38, 48 h
WI-38 [31] = assay: Cell cycle arrest in human WI38 cells as assessed as accumulation at S phase at 1 uM after 48 hrs by propidium iodide staining-based flow cytometric analysis relative to control; details: wi-38, 48 h
MCF7 [32] = assay: Cell cycle arrest in human MCF7 cells as assessed as accumulation at G1 phase at 0.1 uM after 24 hrs by propidium iodide staining-based flow cytometric analysis relative to control; assay type: functional
MCF7 [33] = assay: Cell cycle arrest in human MCF7 cells as assessed as accumulation at G1 phase at 1 uM after 24 hrs by propidium iodide staining-based flow cytometric analysis relative to control; assay type: functional
MCF7 [34] = assay: Cell cycle arrest in human MCF7 cells as assessed as accumulation at sub-G1 phase at 1 uM after 48 hrs by propidium iodide staining-based flow cytometric analysis relative to control; assay type: functional
K562 [35] = assay: Cell cycle arrest in human K562 cells as assessed as accumulation at G2/M phase at 0.1 uM after 24 hrs by propidium iodide staining-based flow cytometric analysis relative to control; assay type: functional
K562 [36] = assay: Cell cycle arrest in human K562 cells as assessed as accumulation at sub-G1 phase at 1 uM after 24 hrs by propidium iodide staining-based flow cytometric analysis relative to control; assay type: functional

COCn1c(CC(COCc2ccccc2)COCc2ccccc2)c(C)c(=O)n(COC)c1=O
Activity (K562 [1]): 26.6%
Activity (K562 [2]): 3%
Activity (K562 [3]): 49.8%
Activity (K562 [4]): 51.8%
Activity (K562 [5]): 25.9%
Activity (K562 [6]): 17.4%
Activity (K562 [7]): 3.3%
Activity (K562 [8]): 85.8%
Activity (K562 [9]): 15%
Activity (K562 [10]): 64.4%
Activity (K562 [11]): 18.2%
Activity (K562 [12]): 3.9%
Activity (MCF7 [13]): Dose-dependent effect
IC50 (MCF7 [13]; MCF7, 72 h): 400 nM
IC50 [14]: 500 nM
Activity (MIA PaCa-2): Dose-dependent effect
IC50 (K562 [15]): 600 nM
IC50 (BJ): 5.3 µM
Activity (SW-620 [16]): 4.3%
Activity (SW-620 [17]): 51.5%
Activity (SW-620 [18]): 21.7%
Activity (SW-620 [19]): 5.2%
Activity (SW-620 [20]): 55.9%
Activity (SW-620 [21]): 16.1%
Activity (SW-620 [22]): 20.1%
Activity (SW-620 [23]): 53.1%
Activity (SW-620 [24]): 15.8%
Activity (WI-38 [25]): 61.7%
Activity (WI-38 [26]): 8.9%
Activity (WI-38 [27]): 70.1%
Activity (WI-38 [28]): 2.4%
Activity (WI-38 [29]): 5.1%
Activity (WI-38 [30]): 45.5%
Activity (WI-38 [31]): 3.4%
Activity (MCF7 [32]): 25.5%
Activity (MCF7 [33]): 14.8%
Activity (MCF7 [34]): 78.9%
Activity (K562 [35]): 22.2%
Activity (K562 [36]): 3.1%
